These results are taken from ChEMBL document CHEMBL5356974, “Development of MPS1 Inhibitors: Recent Advances and Perspectives” (J Med Chem, 2023).

Assay [1] addresses T1, Dual specificity protein kinase TTK (Homo sapiens) (UniProt P33981).
T1 sequence (whole entry): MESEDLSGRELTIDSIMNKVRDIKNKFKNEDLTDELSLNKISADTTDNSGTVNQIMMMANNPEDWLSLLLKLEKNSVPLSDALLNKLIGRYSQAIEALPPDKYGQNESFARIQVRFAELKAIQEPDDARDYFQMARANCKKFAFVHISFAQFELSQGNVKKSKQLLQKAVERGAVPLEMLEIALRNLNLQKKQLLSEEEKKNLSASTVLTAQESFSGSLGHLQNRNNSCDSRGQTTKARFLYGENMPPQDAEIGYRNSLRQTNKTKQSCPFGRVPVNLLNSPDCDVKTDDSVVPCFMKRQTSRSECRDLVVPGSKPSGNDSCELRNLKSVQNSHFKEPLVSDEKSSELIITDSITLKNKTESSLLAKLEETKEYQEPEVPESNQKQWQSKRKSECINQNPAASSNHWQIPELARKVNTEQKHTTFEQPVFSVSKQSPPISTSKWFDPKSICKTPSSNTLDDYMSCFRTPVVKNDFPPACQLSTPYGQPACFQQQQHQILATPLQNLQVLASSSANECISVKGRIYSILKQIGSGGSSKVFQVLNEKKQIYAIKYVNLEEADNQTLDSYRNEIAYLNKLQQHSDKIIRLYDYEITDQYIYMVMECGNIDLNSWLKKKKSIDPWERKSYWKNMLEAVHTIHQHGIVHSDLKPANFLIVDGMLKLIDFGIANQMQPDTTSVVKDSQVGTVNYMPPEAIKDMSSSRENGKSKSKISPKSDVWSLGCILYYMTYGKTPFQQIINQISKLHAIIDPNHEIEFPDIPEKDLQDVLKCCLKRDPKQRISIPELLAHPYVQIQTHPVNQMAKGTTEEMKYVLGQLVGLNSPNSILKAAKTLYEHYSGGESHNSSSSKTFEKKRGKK
The settings on record: dose 100.0 nM.

Assay [2] concerns the target T2, Serine/threonine-protein kinase NLK (Homo sapiens) (UniProt Q9UBE8).
T2 sequence (whole entry): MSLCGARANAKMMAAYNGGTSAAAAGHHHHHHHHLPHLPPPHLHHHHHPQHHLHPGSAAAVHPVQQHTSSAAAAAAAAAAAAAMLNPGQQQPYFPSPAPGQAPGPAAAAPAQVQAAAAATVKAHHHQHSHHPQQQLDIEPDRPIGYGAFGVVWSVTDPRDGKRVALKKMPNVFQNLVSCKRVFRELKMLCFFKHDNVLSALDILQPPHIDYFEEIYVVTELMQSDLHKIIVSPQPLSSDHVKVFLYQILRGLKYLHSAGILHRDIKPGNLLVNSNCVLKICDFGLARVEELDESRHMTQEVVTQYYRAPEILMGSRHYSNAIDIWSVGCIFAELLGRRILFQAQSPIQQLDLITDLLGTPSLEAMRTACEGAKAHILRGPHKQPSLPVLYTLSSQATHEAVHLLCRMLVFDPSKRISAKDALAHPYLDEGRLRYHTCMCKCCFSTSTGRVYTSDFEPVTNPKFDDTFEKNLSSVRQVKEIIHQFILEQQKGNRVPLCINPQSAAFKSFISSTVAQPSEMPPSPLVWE
The assay can be described thus: Inhibition of NLK (unknown origin) relative to control. The settings on record: concentration not given here.

The target of assay [3] is Mitogen-activated protein kinase 9 (Homo sapiens) (UniProt P45984). The assay can be described thus: Inhibition of JNK2 (unknown origin) relative to control. As to conditions: concentration not given here.
Mitogen-activated protein kinase 9 (Homo sapiens), sequence (P45984 whole entry, looked up): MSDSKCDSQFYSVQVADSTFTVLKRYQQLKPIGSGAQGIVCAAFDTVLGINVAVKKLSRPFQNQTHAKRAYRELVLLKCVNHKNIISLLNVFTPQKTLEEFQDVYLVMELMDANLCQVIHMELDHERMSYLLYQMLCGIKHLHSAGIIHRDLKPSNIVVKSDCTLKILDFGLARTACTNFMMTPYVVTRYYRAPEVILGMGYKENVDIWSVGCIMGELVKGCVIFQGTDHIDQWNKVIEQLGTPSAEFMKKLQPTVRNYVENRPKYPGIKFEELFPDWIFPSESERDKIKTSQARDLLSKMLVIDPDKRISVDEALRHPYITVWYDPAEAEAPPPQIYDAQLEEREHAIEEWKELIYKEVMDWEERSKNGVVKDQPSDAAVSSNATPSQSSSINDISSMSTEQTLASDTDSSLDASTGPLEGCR
The target in assay [4] is Mitogen-activated protein kinase 10 (Homo sapiens) (UniProt P53779). Description: Inhibition of JNK3 (unknown origin) relative to control. The settings on record: concentration not given here.
Mitogen-activated protein kinase 10 (Homo sapiens), sequence (P53779 whole entry): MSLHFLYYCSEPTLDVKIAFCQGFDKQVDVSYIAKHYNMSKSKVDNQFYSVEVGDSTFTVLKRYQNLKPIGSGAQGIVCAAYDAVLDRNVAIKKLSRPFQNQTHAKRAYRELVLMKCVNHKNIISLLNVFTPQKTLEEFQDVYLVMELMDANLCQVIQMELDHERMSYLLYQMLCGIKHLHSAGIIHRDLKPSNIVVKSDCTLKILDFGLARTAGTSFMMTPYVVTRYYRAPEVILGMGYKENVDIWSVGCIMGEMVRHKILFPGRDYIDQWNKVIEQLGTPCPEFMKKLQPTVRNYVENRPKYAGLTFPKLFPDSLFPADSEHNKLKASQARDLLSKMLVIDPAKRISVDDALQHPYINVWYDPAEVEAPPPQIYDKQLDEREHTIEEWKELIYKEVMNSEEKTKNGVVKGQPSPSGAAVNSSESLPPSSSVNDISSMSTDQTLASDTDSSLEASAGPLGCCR
Assay [5] deals with T3, Dual specificity protein kinase TTK (Homo sapiens, UniProt P33981).
T3 sequence (P33981 whole entry): T1 sequence (whole entry)
The assay can be described thus: Inhibition of full-length MPS1 (unknown origin) using fluorescein-labeled MBP-derived peptide as substrate preincubated for 1 hr followed by substrate addition measured after 2 hrs in presence of ATP by FP assay.

What is called inhibition is how much of the control response was suppressed. Read a high inhibition as strong suppression. Regarding `CCc1nn(CCOCCOC)c(CC)c1NC(=O)c1ccn2c1CCc1cnc(Nc3ccc(N4CCN(C)CC4)cc3OC)nc1-2`, the inhibition in assay [1] is over 90%.

Turning to `Cn1cc(-c2cc3cnc(Nc4ccc(-c5cncn5C)cc4Cl)cc3n2C(=O)OC(C)(C)C)cn1`, the inhibition in assay [2], in assay [3] and in assay [4] was 80% in each case.

For orientation: IC50 means the point on the concentration scale where inhibition reaches its midpoint. On to `CCc1n[nH]c(CC)c1NC(=O)c1ccn2c1CCc1cnc(Nc3ccc(N4CCN(C)CC4)cc3OC)nc1-2`, for which, in assay [5], the IC50 was 1.2 nM. Moreover, in assay [1], the inhibition is over 90%. As for `CN1CCC(c2ccc(Nc3ncc4c(n3)-n3ccc(C(N)=O)c3CC4)cc2)CC1`, the concentration for half-maximal inhibition (IC50) in assay [5] came out at 7.6 nM.
